Among the data in patent publication EP3074389B1, “QUINOLINE DERIVATIVES AS BROMODOMAIN INHIBITORS” (Gilead Sciences, Inc., priority 2013, dated 2015) are Kd values, retold here.

The target of one assay is BRD4 domain 1 (Homo sapiens, UniProt O60885). The assay can be described thus: Kd determination of inhibitors binding to BRD4 domain 1 (Epic label-free platform). As to conditions: direct binding to immobilized BRD4 domain 1; tripling dilution series from 20µM; about 1hr equilibrium; rounded to whole number; read-out: Epic Kd BRD41. The method in brief:
(§1)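 Label-free resonant waveguide (Epic) direct binding to BRD4 domain 1 or domain 2 amine-coupled via EDC/Sulfo-NHS at 150 µg/mL in 20 mM HEPES pH 7. Binding response taken as wavelength shift (pm) between baseline and second read; Kd from fit to a single-site binding isotherm.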

Another assay addresses BRD4 domain 2 (Homo sapiens, UniProt O60885). The assay can be described thus: Kd determination of inhibitors binding to BRD4 domain 2 (Epic label-free platform). Conditions: direct binding to immobilized BRD4 domain 2; tripling dilution series from 20µM; about 1hr equilibrium; rounded to whole number. The method in brief:
as §1

The Kd is the equilibrium constant for the complex coming apart.

The structures appear in SMILES notation. Some results are limits rather than exact numbers.

Regarding `Cc1noc(C)c1-c1cc(S(=O)(=O)NCCc2ccccc2)c2ccc(=O)[nH]c2c1` [Compound 48, 7-(3,5-dimethylisoxazol-4-yl)-2-oxo-N-phenethyl-1,2-dihydroquinoline-5-sulfonamide], the Kd was over 20 µM on BRD4 domain 1 and 20 µM on BRD4 domain 2.
`Cc1noc(C)c1-c1cc(S(=O)(=O)N[C@@H]2CCC[C@H]2NC(=O)OC(C)(C)C)c2cccnc2c1` [Compound 45, tert-butyl ((1R,2R)-2-(7-(3,5-dimethylisoxazol-4-yl)quinoline-5-sulfonamido)cyclopentyl)carbamate]: the Kd on BRD4 domain 1 was 14.6 µM; at BRD4 domain 2, over 20 µM.
For `Cc1noc(C)c1-c1cc(S(=O)(=O)NC2CC3CCC(C2)N3C)c2cccnc2c1` (stereo not drawn) [Compound 40, 7-(3,5-dimethylisoxazol-4-yl)-N-(8-methyl-8-azabicyclo[3.2.1]octan-3-yl)quinoline-5-sulfonamide] the same measures were 16 µM and over 20 µM.
For `CC(=O)NCCNC(=O)[C@@H]1CCC[C@H]1NS(=O)(=O)c1cc(-c2c(C)noc2C)cc2ncccc12` [Compound 73, (1R,2R)-N-(2-acetamidoethyl)-2-(7-(3,5-dimethylisoxazol-4-yl)quinoline-5-sulfonamido)cyclopen tanecarboxamide] the same measures were over 20 µM and 16.7 µM.
Take `Cc1noc(C)c1-c1cc(S(=O)(=O)NC2CC2(C)C)c2cccnc2c1` (stereo not drawn) [Compound 83]: the values for the Kd at BRD4 domain 1 and on BRD4 domain 2 were 16.7 µM and 16.6 µM, respectively.
As to `Cc1noc(C)c1-c1cc(S(=O)(=O)NC2CCCC2)c2cc(N3CCNCC3)c(=O)[nH]c2c1` [Compound 56, N-cyclopentyl-7-(3,5-dimethylisoxazol-4-yl)-2-oxo-3-(piperazin-1-yl)-1,2-dihydroquinoline-5-sulfonamide], the Kd on BRD4 domain 1 was found to be 0.933 µM; at BRD4 domain 2 it was 0.611 µM.
Consider `Cc1noc(C)c1-c1cc(S(=O)(=O)NC2CCCC2)c2cc(NCCO)c(=O)[nH]c2c1` [Compound 57, N-cyclopentyl-7-(3,5-dimethylisoxazol-4-yl)-3-((2-hydroxyethyl)amino)-2-oxo-1,2-dihydroquinoline-5-sulfonamide], for which the results for the Kd on BRD4 domain 1 and at BRD4 domain 2 were 0.444 µM and 0.477 µM, respectively.
For the compound `Cc1noc(C)c1-c1cc(S(=O)(=O)NC2CCCC2)c2cc(NCCCN(C)C)c(=O)[nH]c2c1` [Compound 95, N-cyclopentyl-3-((3-(dimethylamino)propyl)amino)-7-(3,5-dimethylisoxazol-4-yl)-2-oxo-1,2-dihydroquinoline-5-sulfonamide], the Kd was 0.798 µM on BRD4 domain 1 and 0.503 µM on BRD4 domain 2.
On to `Cc1noc(C)c1-c1cc(S(=O)(=O)N[C@@H]2CCC[C@H]2O)c2cccnc2c1` [Compound 26, 7-(3,5-dimethylisoxazol-4-yl)-N-((1R,2R)-2-hydroxycyclopentyl)q uinoline-5-sulfonamide], for which the Kd on BRD4 domain 1 was found to be 4.09 µM; on BRD4 domain 2 it was 3.55 µM.
The corresponding values for `Cc1noc(C)c1-c1cc(S(=O)(=O)N[C@@H]2CCC[C@@H]2O)c2cccnc2c1` [Compound 23, 7-(3,5-dimethylisoxazol-4-yl)-N-((1R,2S)-2-hydroxycyclopentyl)q uinoline-5-sulfonamide] are 19.5 µM and 16.7 µM.
Regarding `COCCNc1cc2c(S(=O)(=O)NC3CCCC3)cc(-c3c(C)noc3C)cc2[nH]c1=O` [Compound 58, N-cyclopentyl-7-(3,5-dimethylisoxazol-4-yl)-3-((2-methoxyethyl)amino)-2-oxo-1,2-dihydroquinoline-5-sulfonamide], the values for the Kd at BRD4 domain 1 and at BRD4 domain 2 were 0.313 µM and 0.32 µM, respectively.
The corresponding values for `COc1ccc2c(S(=O)(=O)NC3CCCC3)cc(-c3c(C)noc3C)cc2n1` [Compound 16, N-cyclopentyl-7-(3,5-dimethylisoxazol-4-yl)-2-methoxyquinoline-5 - sulfonamide] are 3.37 µM and 6.3 µM.
For `Cc1noc(C)c1-c1cc(S(=O)(=O)NC2CC2)c2cccnc2c1` [Compound 8, N-cyclopropyl-7-(3,5-dimethylisoxazol-4-yl)quinoline-5-sulfonamide] the same measures were 3.95 µM and 2.25 µM.
As to `Cc1noc(C)c1-c1cc(S(=O)(=O)NCCN)c2cccnc2c1` [Compound 74, N-(2-aminoethyl)-7-(3,5-dimethylisoxazol-4-yl)quinoline-5-sulfonamide], the Kd at BRD4 domain 1 came out at 14.1 µM; at BRD4 domain 2, 17.5 µM.
Take `Cc1noc(C)c1-c1cc(S(=O)(=O)NC2CCCC2)c2ccc(C3CC3)nc2c1` [Compound 4, N-cyclopentyl-2-cyclopropyl-7-(3,5-dimethylisoxazol-4-yl)quinoline-5-sulfonamide]: the Kd at BRD4 domain 1 turned out to be 1.44 µM; at BRD4 domain 2, 3.5 µM.
Consider `Cc1noc(C)c1-c1cc(S(=O)(=O)NC2CCCC2)c2cc(-c3ccccn3)c(=O)[nH]c2c1` [Compound 36, N-cyclopentyl-7-(3,5-dimethylisoxazol-4-yl)-2-oxo-3-(pyridin-2-yl)-1,2-dihydroquinoline-5-sulfonamide], for which the results for the Kd at BRD4 domain 1 and on BRD4 domain 2 were 1.45 µM and 0.718 µM, respectively.
In the case of `Cc1noc(C)c1-c1cc(S(=O)(=O)N[C@H]2CCC[C@H]2O)c2cccnc2c1` [Compound 27, 7-(3,5-dimethylisoxazol-4-yl)-N-((1S,2R)-2-hydroxycyclopentyl)q uinoline-5-sulfonamide], the Kd on BRD4 domain 1 was 12.5 µM; on BRD4 domain 2, 6.8 µM.
For `Cc1noc(C)c1-c1cc(S(=O)(=O)NC2CCCC2)c2cc(C(=O)N(C)C)c(=O)[nH]c2c1` [Compound 75, 5-(N-cyclopentylsulfamoyl) -7-(3,5-dimethylisoxazol-4-yl)-N,N-dimethyl-2-oxo-1,2-dihydroquinoline-3 - carboxamide] the same measures were 10.7 µM and 8.94 µM.
`Cc1noc(C)c1-c1cc(S(=O)(=O)NCC2CC2)c2cccnc2c1` [Compound 15, N-(cyclopropylmethyl)-7-(3,5-dimethylisoxazol-4-yl)quinoline-5-sulfonamide]: the Kd at BRD4 domain 1 is 9.43 µM; on BRD4 domain 2, 5.9 µM.
Consider `Cc1noc(C)c1-c1cc(S(=O)(=O)NC2CCCC2)c2cc(N3CCOC3=O)c(=O)[nH]c2c1` [Compound 64, N-cyclopentyl-7-(3,5-dimethylisoxazol-4-yl)-2-oxo-3-(2-oxooxazolidin-3-yl)-1,2-dihydroquinoline-5-sulfonamide], for which the results for the Kd at BRD4 domain 1 and on BRD4 domain 2 were 4.85 µM and 3.21 µM, respectively.
On to `COC[C@H]1CCC[C@H]1NS(=O)(=O)c1cc(-c2c(C)noc2C)cc2ncccc12` [Compound 63, 7-(3,5-dimethylisoxazol-4-yl)-N-((1R,2S)-2-(methoxymethyl)cyclopentyl)quinoline-5-sulfonamide], for which the Kd at BRD4 domain 1 worked out at 14.6 µM; at BRD4 domain 2, 9.56 µM.
With `CC(=O)N[C@H]1CCC[C@H]1NS(=O)(=O)c1cc(-c2c(C)noc2C)cc2ncccc12` [Compound 51, N-((1S,2R)-2-(7-(3,5-dimethylisoxazol-4-yl)quinoline-5-sulfonamido)cyclopentyl)acetamide], the Kd at BRD4 domain 1 came out at 7.62 µM; at BRD4 domain 2, 6.45 µM.
As for `Cc1noc(C)c1-c1cc(S(=O)(=O)NC2CCCC2)c2cc(C#N)c(=O)[nH]c2c1` [Compound 31, 3-cyano-N-cyclopentyl-7-(3,5-dimethylisoxazol-4-yl)-2-oxo-1,2-dihydroquinoline-5-sulfonamide], the Kd is 0.867 µM on BRD4 domain 1 and 0.634 µM on BRD4 domain 2.
As for `CCN[C@H]1CCC[C@H]1NS(=O)(=O)c1cc(-c2c(C)noc2C)cc2ncccc12` [Compound 53, 7-(3,5-dimethylisoxazol-4-yl)-N-((1R,2S)-2-(ethylamino)cyclopentyl)quinoline-5-sulfonamide], the values for the Kd at BRD4 domain 1 and on BRD4 domain 2 were over 20 µM and 8.64 µM, respectively.
In the case of `Cc1noc(C)c1-c1cc(S(=O)(=O)NC2(C#N)CCCC2)c2cccnc2c1` [Compound 52, N-(1-cyanocyclopentyl)-7-(3,5-dimethylisoxazol-4-yl)quinoline-5-sulfonamide], the Kd is over 20 µM at BRD4 domain 1 and 11.7 µM at BRD4 domain 2.
In the case of `Cc1noc(C)c1-c1cc(S(=O)(=O)NC2CCCC2)c2cc(NC3CCN(C)CC3)c(=O)[nH]c2c1` [Compound 66, N-cyclopentyl-7-(3,5-dimethylisoxazol-4-yl)-3-((1-methylpiperidin-4-yl)amino)-2-oxo-1,2-dihydroquinoline-5-sulfonamide], the Kd at BRD4 domain 1 stood at 0.52 µM; at BRD4 domain 2, 0.421 µM.
For `Cc1noc(C)c1-c1cc(S(=O)(=O)NC2CCCC2)c2ccc(OCC3CC3)nc2c1` [Compound 6, N-cyclopentyl-2-(cyclopropylmethoxy) -7-(3,5-dimethylisoxazol-4-yl)quinoline-5-sulfonamide] the same measures were 2.11 µM and 2.04 µM.
Take `Cc1noc(C)c1-c1cc(S(=O)(=O)NC2CCCC2)c2cc(N(C)C)c(=O)[nH]c2c1` [Compound 61, N-cyclopentyl-3-(dimethylamino)-7-(3,5-dimethylisoxazol-4-yl)-2-oxo-1,2-dihydroquinoline-5-sulfonamide]: the Kd at BRD4 domain 1 came out at 1.02 µM; at BRD4 domain 2, 0.645 µM.
On to `Cc1noc(C)c1-c1cc(S(=O)(=O)NC2CCCC2)c2cc(Br)c(=O)[nH]c2c1` [Compound 22, 3-bromo-N-cyclopentyl-7-(3,5-dimethylisoxazol-4-yl)-2-oxo-1,2-dihydroquinoline-5-sulfonamide], for which the Kd on BRD4 domain 1 was 1.02 µM; on BRD4 domain 2, 0.501 µM.
Take `Cc1noc(C)c1-c1cc(S(=O)(=O)NC2CC2)c2ccc(=O)[nH]c2c1` [Compound 68, N-cyclopropyl-7-(3,5-dimethylisoxazol-4-yl)-2-oxo-1,2-dihydroquinoline-5-sulfonamide]: the Kd at BRD4 domain 1 was determined as 13.8 µM; at BRD4 domain 2, 2.92 µM.
